# Assay results from US5869456A, “Use of glutathione diesters” (priority 1995, dated 1999).
# Like-named read-outs stand apart in the source and are kept apart here.
# Legend:
# [1] = system: esterase activity, mouse blood plasma
# [2] = system: GSH diester α-esterase activity, rabbit plasma
# [3] = system: GSH diester α-esterase activity, hamster plasma
# [4] = system: GSH diester α-esterase activity, guinea pig plasma
# [5] = system: Human Erythrocytes; conditions: whole blood + one-half volume 120 mM thiol, 30 minutes, 37° C.
# Procedure: (§1) Derivatization of Cell Thiols for HPLC Analysis. Derivatization mixtures are as follows: Erythrocyte Lysates: 155 μl 50 mM DTPA (pH 7), 110 μl 3.33% SSA, total 180 μl cell supernatant plus "RBC Mix", 10 μl 0.1M mBBr (in CH3 CN), 100 μl of 2M Tris·HCl (pH 9 at room temperature). The samples were placed in the dark for 20-30 minutes at room temperature; the reaction was quenched with 90 μl of glacial acetic acid. Reduced Erythocyte Lysates. 155 μl mM DTT in 50 mM DTPA (pH 7), SSA, sample, and "RBC Mix" as above Tris was added and the samples were agitated at room temperature for 25 min. 20 μl Tris and 10 μl mBBr were added; the derivatization proceeds as above.
# (§2) HPLC Analysis of Cellular Thiols. Samples were chromatographed on an Altex Ultrasphere ODS reverse phase column (5μ; 4.6 mm×25 cm), using one of three gradients: (1) Buffer A: 12.8% MeOH, 0.25% acetic acid, 87.75% H2 O, pH 3.9. (2) Buffer B: 90.0% MeOH, 0.25% acetic acid, 9.75% H2 O (no pH Adjustment). (3) Gradient 1: Initial, 100% A, linear gradient to 50% B at 25 min., linear gradient to 100% B at 35 min., wash with 100% B to 39.5 min.; step to 100% A at 40 min.; equilibration with 100% A to 48 min. Gradient 2: Initial, 100% A, linear gradient to 75% B at 25 min., remainder identical to Gradient 1. Gradient 3: Initial, 100% A, linear gradient to 65% A, 35% B at 25 minutes, remainder identical to gradient 1. Flow rates were 1 ml/min.
# Whole blood (see Table 1) was mixed with one-half volume of 120 mM GSH, GSH-ME, or GSH-DE at pH 7. The samples were incubated for 30 minutes at 37° C. and then centrifuged. After removal of plasma and buffy coat, the erythrocytes were washed and processed as described in Table 1.
# [6] = system: mice; conditions: given to mice, present studies
# [7] = system: Human Peripheral Blood Mononuclear Cells; conditions: 6 ml whole blood + 3 ml 60 mM thiol, 30 min, 37° C.; PBM
# Procedure: (§3) T Cell and PBM Lysates: 120 μl 4 mM DTPA, total 360 μl sample/4.31% SSA (containing 0.5 mM DTPA), 100 μl Tris, 5μ mBBr; 20 min. in the dark, 15 μl glacial acetic acid.
# as §2
# 6 mls. whole blood (see Table 1) was mixed with 3 ml of 60 mM GSH, GSH-ME or GSH-DE at pH 7. After 30 min incubation at 37° C., PBM were isolated by Ficoll-Hypaque density gradient centrifugation. Cells were washed with 14 ml PBS (2-3) and lysed with 4.31% SSA/0.5 mM DTPA (400 μl). After centrifugation, the supernatants were derivatized for HPLC analysis.
# [8] = system: Human Peripheral Blood Mononuclear Cells; conditions: for Thiol Levels, Total / Thiol Levels, thiol found GSH / Thiol Levels, thiol found GSH-DE / Thiol Levels, thiol found GSH-ME: isolated PBM, 0.3 ml 80 mM thiol to 0.9 ml cells, 37° C.
# Procedure: as §3, §2
# PBM were isolated from whole blood (see Tables 1 and 3) washed with PBS, and re-suspended in PBS. To 0.9 ml cell suspension (5-8×10^6 cells) was added 0.3 ml of 80 mM GSH, GSH-ME or GSH-DE at pH 7. After incubation at 37° C. for the indicated times, the cells were recovered by centrifugation, washed with 14 ml PBS (2×), and lysed by addition of 4.31% of SSA/0.5 mM DTPA and 2-3 freeze-thaw cycles. After centrifugation, supernatants were derivatized for HPLC analysis.
# [9] = system: Hamsters (liver, kidney, blood plasma); assay: Thiol levels in hamsters treated with GSH esters; type: in vivo, Syrian hamster
# Procedure: Plasma Samples: 190 μl 50 mM DTPA, total 70 μ1 sample plus 3.33% SSA, 17.5 μl Tris, 10 μl of mBBr; after 20 min in the dark, 7.5 μl glacial acetic acid. Reduced Plasma Samples: 170μ 50 mM DTPA, 20 μl 16 mM DTT in 50 mM DTPA, remainder as above; the samples were agitated at room temperature for 20 min. After reduction, mBBr was added and the derivatization proceeds as above.
# Other Animal Tissues. 385 μl 50 mM DTPA, 140 μl sample. 20 μl mBBr, 40 μl Tris; 20 minutes in the dark, 15 μl glacial acetic acid. Standards for all sample types were prepared using identical derivatization procedures.
# Recovery of Tissues from Syrian Hamsters. Animals were anesthetized by i.p. administration of xylazine and ketamine, decapitated, and exsanguinated. Blood was mixed with 50 μl EDTA (0.5M, pH 7). Plasma was recovered by centrifugation; one-half vol. 10% SSA/0.5 mM DTPA was added. Liver: one lobe was removed, rinsed with H2 O, blotted, weighed, and homogenized in 5% SSA (0.5 Mm DTPA) (5 vol/g tissue). Kidney: one kidney was removed and decapsulated and then processed as with liver.
# BSO (6 mmol/kg) was given I.P. fasted animals 2 hours prior to giving GSH, GSH-ME, or GSH-DE (5 mmol/kg); values were determined 1 hour later. […] Each value represents determinations ±S.D. on 3-4 animals.
# [10] = system: esterase activity, rat blood plasma
# [11] = system: Human Erythrocytes; conditions: for Thiol Levels, Total / Thiol Levels, thiol found GSH / Thiol Levels, thiol found GSH-DE / Thiol Levels, thiol found GSH-ME: erythrocyte suspension, 80 mM thiol added (one-third vol), 37° C.
# Procedure: Analysis of Erythrocyte Thiol by DTNB. Cell supernatant (40 μl) was added to 1 ml of 6 mM DTNB (in 143 mM phosphate buffer, pH 7.5, containing 6.3 mM EDTA). The change in absorbance at 412 nm after 1 min was converted to a value for total thiol using a GSH standard curve. The GSH standard were prepared in a 1:2:2 mixture of PBS: 0.435M acetic acid: 10% SSA (containing 2 mM EDTA) ("RBC Mix").
# as §1, §2
# Whole blood was collected with EDTA or DTPA (0.5M, pH 7) as anticoagulant (0.4 ml/8-12 ml blood). Plasma and buffy coat were removed after centrifugation and the erythrocytes washed 3 times with 1-2 vol PBS/5 mM DTPA or EDTA. Packed erythrocytes were suspended in one-half vol. PBS. To each suspension was one-third vol. GSH, GSH-ME or GSH-DE (80 mM, pH 7). After incubation at 37° C. for the indicated times, aliquots were removed, washed (3-4×) with PBS/EDTA/DTPA, lysed with one volume 0.435M acetic acid, protein-precipitated with one volume 10% SSA/2 mM DTPA, and centrifuged to remove cell debris. Supernatants were derivatized for HPLC analysis as described in Materials and Methods.
# [12] = system: GSH diester α-esterase activity, human blood plasma
# [13] = system: GSH diester α-esterase activity, sheep plasma
# [14] = system: hamsters; conditions: given to hamsters, present studies
# [15] = system: mice; conditions: earlier evidence / earlier patents; cited from earlier work
smiles,measurement,setting,value
"CCOC(=O)CNC(=O)[C@H](CS)NC(=O)CC[C@H](N)C(=O)OCC [GSH-DE, glutathione diethyl ester]",conversion of GSH diethyl ester to GSH mono (glycyl) ester in blood plasma,[1],split rapidly to GSH-ME
same,conversion of GSH diethyl ester to GSH mono (glycyl) ester in blood plasma,[1]; listed as GSH diethyl ester,rapidly converted to GSH mono (glycyl) ester
same,GSH diester α-esterase activity in plasma,[2],also lack this esterase
same,splitting of GSH-DE to GSH-ME in plasma (GSH diester α-esterase activity),[3],not split to GSH-ME in plasma
same,splitting of GSH-DE to GSH-ME in plasma (GSH diester α-esterase activity),[3]; listed as GSH diethyl ester,lacks detectable GSH diester α-esterase activity
same,GSH diester α-esterase activity in plasma,[4],also lack this esterase
same,"Thiol Levels Found, GSH",[5],2.24 ± 0.45 mM
same,"Thiol Levels Found, GSH-DE",[5],8.61 ± 0.31 mM
same,"Thiol Levels Found, GSH-ME",[5],6.26 ± 0.50 mM
same,"Thiol Levels Found, Total",[5],17.1 ± 1.24 mM
same,toxicity,[6],toxicity was not observed
same,"Thiol Levels Found, GSH",[7],4.24 nmol/10^6 cells
same,"Thiol Levels Found, GSH-DE",[7],0.501 nmol/10^6 cells
same,"Thiol Levels Found, GSH-ME",[7],10.5 nmol/10^6 cells
same,"Thiol Levels Found, Total",[7],15.2 nmol/10^6 cells
same,total thiols in human PBM,"[8]; in 90 min, text summary of Table 4",33 mM
same,"Thiol Levels, Total","[8]; 7 min, donor A",12.1 ± 1.3 nmol/10^6 cells
same,"Thiol Levels, thiol found GSH","[8]; 7 min, donor A",3.64 ± 0.32 nmol/10^6 cells
same,"Thiol Levels, thiol found GSH-DE","[8]; 7 min, donor A",0.65 ± 0.016 nmol/10^6 cells
same,"Thiol Levels, thiol found GSH-ME","[8]; 7 min, donor A",8.34 ± 0.95 nmol/10^6 cells
same,"Thiol Levels, Total","[8]; 45 min, donor B",17.2 ± 1.4 nmol/10^6 cells
same,"Thiol Levels, thiol found GSH","[8]; 45 min, donor B",2.82 ± 0.25 nmol/10^6 cells
same,"Thiol Levels, thiol found GSH-DE","[8]; 45 min, donor B",0.320 ± 0.101 nmol/10^6 cells
same,"Thiol Levels, thiol found GSH-ME","[8]; 45 min, donor B",14.1 ± 1.0 nmol/10^6 cells
same,"Thiol Levels, Total","[8]; 90 min, donor A",33.2 ± 6.3 nmol/10^6 cells
same,"Thiol Levels, thiol found GSH","[8]; 90 min, donor A",5.58 ± 1.05 nmol/10^6 cells
same,"Thiol Levels, thiol found GSH-DE","[8]; 90 min, donor A",0.750 ± 0.141 nmol/10^6 cells
same,"Thiol Levels, thiol found GSH-ME","[8]; 90 min, donor A",26.9 ± 5.1 nmol/10^6 cells
same,raising GSH levels in liver,"[9]; hamster, comparison in words (Table 6)",more effective than GSH-ME
same,Blood plasma levels of GSH,"[9]; hamsters, 5 mmol/kg after BSO, 1 hour later",not affected
same,conversion of GSH diethyl ester to GSH mono (glycyl) ester in blood plasma,[10],split rapidly to GSH-ME
same,conversion of GSH diethyl ester to GSH mono (glycyl) ester in blood plasma,[10]; listed as GSH diethyl ester,rapidly converted to GSH mono (glycyl) ester
same,"Thiol Levels, Total",[11]; 7 min,9.99 ± 2.10 mM
same,"Thiol Levels, thiol found GSH",[11]; 7 min,1.74 ± 0.22 mM
same,"Thiol Levels, thiol found GSH-DE",[11]; 7 min,4.19 ± 1.47 mM
same,"Thiol Levels, thiol found GSH-ME",[11]; 7 min,4.01 ± 0.41 mM
same,"Thiol Levels, Total",[11]; 45 min,14.5 ± 2.0 mM
same,"Thiol Levels, thiol found GSH",[11]; 45 min,1.77 ± 0.22 mM
same,"Thiol Levels, thiol found GSH-DE",[11]; 45 min,3.61 ± 1.29 mM
same,"Thiol Levels, thiol found GSH-ME",[11]; 45 min,9.15 ± 0.49 mM
same,"Thiol Levels, Total",[11]; 90 min,20.1 ± 2.8 mM
same,"Thiol Levels, thiol found GSH",[11]; 90 min,2.02 ± 0.30 mM
same,"Thiol Levels, thiol found GSH-DE",[11]; 90 min,3.51 ± 1.28 mM
same,"Thiol Levels, thiol found GSH-ME",[11]; 90 min,14.6 ± 1.2 mM
same,total RBC thiol levels,[11]; summary of Table 1,about 20 mM
same,splitting of GSH-DE to GSH-ME in plasma (GSH diester α-esterase activity),[12],not split to GSH-ME in plasma
same,splitting of GSH-DE to GSH-ME in plasma (GSH diester α-esterase activity),[12]; listed as GSH diethyl ester,does not have detectable GSH diester α-esterase activity
same,GSH diester α-esterase activity in plasma,[13],also lack this esterase
same,toxicity,[14],toxicity was not observed
COC(=O)CNC(=O)C(CS)NC(=O)CCC(N)C(=O)OC (centres unmarked) [GSH dimethyl ester],toxicity,[15],may be toxic
